Article PMC9415161, “PEG-Bottlebrush Stabilizer-Based Worm-like Nanocrystal Micelles with Long-Circulating and Controlled Release for Delivery of a BCR-ABL Inhibitor against Chronic Myeloid Leukemia (CML)” (Pharmaceutics, 2022)
Read-outs that look alike come from different tables or passages of the source.

Experiments:
K562 xenograft = assay: In vivo anticancer efficacy in K562 xenograft mouse model; design: species or system Bal B/c nude mice; settings: 40 mg/kg QD, PO, n = 5
Experimental: Female Bal B/c nude mice were used to establish K562 xenograft mouse models according to the protocol described above. When the tumors reached 150–200 mm^3, the mice were randomly divided into seven groups (n = 5) for the evaluation of antitumor efficacy in vivo at 40 mg/kg: Vehicle, free 053 QD (Once a day, PO), 053-F127 NC QD (IV), 053-F127 NC Q2D (Once every other day, IV), 053-PPP NC QD (IV), 053-PPP NC Q2D (IV), and 053-PPP NC Q4D (once every 4 days, IV). During the treatment, body weight and tumor growth were measured daily. Tumor volumes (V) were calculated as follows (Equation (3)):V (mm^3) = [(W^2 × L)/2],(3) where width (W) and length (L) are defined as the lower and higher of two measurements, respectively. When the tumors of the vehicle group reached the limit of the animal ethical regulations, the test was stopped. All the mice were euthanized, and major tissues/organs were harvested for immunohistochemical (IHC) analysis, including HE, Ki-67, and TUNEL staining.

[1] = design: method as in PMID 26789553; settings: 50 mg/kg, P.O.; cited from earlier work
K562 cells [2] = assay: In vitro cell toxicity assay (CCK8); format: cell-based; settings: Homo sapiens, K562, 72 h
Experimental: The K562 cell line used in this work was ordered from the American Type Culture Collection (ATCC, Manassas, VA, USA). The K562 cells were cultured in RPMI 1640 with 10% fetal bovine serum (FBS) (VivaCell, Shanghai, China) and 1% penicillin/streptomycin in a humidified incubator at 37 °C with 5% CO2. Firstly, K562 cells were seeded into 96-well plates with 100 μL of 1640 medium containing 3000 cells per well, and were incubated at 37 °C under 5% CO2. Subsequently, the cells in each well were treated with a series of concentrations of free 053 in DMSO, 053-F127 NCs, and 053-PPP NC micelles, respectively. Cell viability was determined using the Cell Counting Kit-8 (CCK8) (Best Bio, Shanghai, China) based on the manufacturer’s instructions. Subsequently, 10 μL of CCK8 solution was added to each well, and the absorbance of each well at a wavelength of 450 nm was measured using a microplate reader (iMARK, Bio-Rad, Hercules, CA, USA) after further incubation for 1 h at 37 °C. The absorbance was normalized and plotted as a function of drug concentration. The GI50 values were calculated using GraphPad Prism 8.0 (San Diego, CA, USA).

[3] = In vivo pharmacokinetics after tail vein injection; settings: male, Sprague-Dawley, rat, plasma, rats, IV 1 mg/kg, n = 3
Experimental: The in vivo profiling of free 053, 053-F127 NCs, and 053-PPP NC micelles were evaluated and compared using PK tests in male Sprague Dawley rats with individual weights of ~200 g (from the Laboratory Animal Center of Anhui Medical University, Hefei, China), approved by the Animal Ethics Committee of Hefei Institutes of Physical Science, Chinese Academy of Sciences, Hefei, China (approval code: DW-2019-20). The rats were housed in an air-conditioned room at 23 ± 2 °C and humidity of ~50%. After acclimatizing the facilities for 1 week, the rats were randomly divided into three groups (three per group): free 053, 053-F127 NC, and 053-PPP NC micelle. The rats were fasted for 12 h prior to drug administration. Free 053 (dissolved in 10% v/v DMSO in glucose 5%), 053-F127 NC, and 053-PPP NC micelle suspensions were administrated by tail vein injection at a dose of 1 mg/kg. Blood samples were collected in heparinized tubes at 2, 5, 15, 30 min and 1, 2, 4, 6, 9, 12, and 24 h (for all three groups). For the 053-PPP NC micelle group, blood was sampled at another three time points of 72, 96, and 120 h. The collected fresh blood samples were immediately processed in accordance with the following protocol: (1) collection of 100 μL of plasma by centrifuging the blood samples for 3 min at 6000 rpm and 4 °C, followed by storage at –80 °C for further analysis; (2) 20 μL of 200 ng/mL of caffeine (as an internal standard solution) was added to 100 μL of each plasma sample; (3) 400 μL of methanol was applied, vortexed for 5 min, and centrifuged at 14,000 rpm for 10 min; (4) the collected supernatants were quantified via LC-MS/MS analysis by loading 5 μL of supernatant. The collected data were analyzed by the non-compartment model using WinNonlin 8.1 software (Pharsight Corporation, Mountain View, CA, USA) to elucidate the PK parameters.

[4] = design: method as in PMID 26789553; settings: cited from earlier work
K562 cells [5] = tested on: K562 cells; design: method as in PMID 26789553; settings: against K562 cells; cited from earlier work

SMILES: CNc1ncncc1C(=O)Nc1cc(NC(=O)c2cccc(C(F)(F)F)c2)ccc1C [Free 053, N-(2-methyl-5-(3-(trifluoromethyl)benzamido)phenyl)-4-(methylamino)pyrimidine-5-carboxamide]
- tumor inhibition efficacy compared with the vehicle group (K562 xenograft): did not show a significant difference
- TGI [1]: 48.3%
- GI50 (K562 cells [2]): 5.95 ± 1.95 nM
- AUC(0-inf) [3]: 509 ± 132 ng·h/mL
- AUC(0-t) [3]: 499 ± 132 ng·h/mL
- C0 [3]: 555 ± 142 ng/mL
- Cmax [3]: 364 ± 42 ng/mL
- Tmax [3]: 1.8 min
- clearance [3]: 34.3 mL/min/kg
- half-life [3]: 2.02 ± 0.42 h
- MRT last ([3]; read-out: MRT0–t): 2.54 ± 0.55 h
- MRT inf ([3]; read-out: MRT0–∞): 2.78 ± 0.57 h
- Vd ([3]; read-out: Vz): 5.87 ± 1.33 L/kg
- oral bioavailability [4]: ~ 24%
- GI50 (K562 cells [5]): ~14 nM
